From PubChem BioAssay AID2060506 (Molecular Pharmacology Branch, DTP, NCI, 2025)
“And” between values parts separate entries of the source, which are not always exact repeats. Equal values may be shown once.

System: 598228-144-R-J1-PDC complex spheroid viability
Experiment: Anticancer human tumor 598228-144-R-J1-PDC patient-derived serous endometrial adenocarcinoma cell line growth inhibition [GQUAD]
Details: for viability, T/C: stronger effect = lower value
Description: DNA G-quadruplex Stabilizer Agents in Combinations in Complex Spheroids
A high-throughput screen of multi-cell type tumor spheroids was designed to identify active combinations of DNA G-quadruplex stabilizer agents and targeted small molecules. Complex spheroids include a stromal component modeled by human endothelial cells (HUVEC) and fibroblasts modeled by human mesenchymal stem cells (MSCs). The concentration ranges selected for each drug and investigational agent were based upon clinically achievable concentrations if the clinical Cmax of the agent was known.
Compounds. The drugs and investigational agents: pidnarulex (CX-5461; NSC782164), APTO-253 (NSC789042), BRACO-19 (NSC847499), peposertib (NSC802822), ceralasertib (NSC780249), elimusertib (NSC800525), camonsertib (NSC841442), AZD-1390 (NSC803789), olaparib (NSC753686), talazoparib (NSC767125), ART-558 (NSC835418), sotorasib (NSC818433), MRTX-1133 (NSC836407), SN-38 (NSC673596), topotecan (NSC609699), etoposide (NSC141540), doxorubicin (NSC123127), gemcitabine (NSC613327), 5-fluorouracil (NSC19893), paclitaxel (NSC125973), vemurafenib (NSC761431), panobinostat (NSC761190), R-306465 (JNJ-16241199; NSC773264), adavosertib (NSC754352), TP-3654 (NSC805149), carboplatin (NSC241240), KSQ-4279 (NSC840948), and staurosporine (NSC755774) were obtained from the National Cancer Institute (NCI) Developmental Therapeutics Program Chemical Repository (34). The FDA-approved anticancer drug set is available from the NCI Developmental Therapeutics Program. […] The stock solutions were prepared in dimethyl sulfoxide (DMSO, Sigma-Aldrich, St. Louis, MO, cat. D2650) at 800-fold the tested concentration and stored at -70 degrees C prior to their use. All drugs and investigational agents were tested over a range starting from a high concentration at or near the clinical Cmax and decreasing in half-log increments. If the clinical Cmax for an agent had not been determined, the highest concentration tested was 10 microM.
2.3 Cell Culture. All cells were maintained in an incubator at 37 degrees C and 5% CO2 with 95% humidity. The PDC lines were cultured according to standard operating procedures established by the NCI PDMR. All PDCs were thawed and cultured in Matrigel-coated flasks prepared with a working solution of 1X Ham's F-12 nutrient mix, without supplementation (Invitrogen, cat. 11765054), 100 U/mL penicillin-streptomycin (Invitrogen, cat. 15140122), and 2.5% Matrigel (Corning Inc., cat. 354248) for the first three passages. The 857933-349-R-J2-PDC line was cultured in 6C/Colon 1B media, which includes advanced DMEM/F-12 (Thermo Fisher Scientific, cat. 12634028), 10 mM HEPES (Thermo Fisher Scientific, cat. 15630080), 1X GlutaMAX supplement (Thermo Fisher Scientific, cat. 35050061), 0.1 mg/mL primocin (InvivoGen, cat. ant-pm-2), 10% defined fetal bovine serum, heat inactivated (HyClone Laboratories Inc., cat. SH30070.03HI), 50% L-WRN conditioned media (ATCC, cat. CRL-3276), 1.25 mM N-Acetyl-L-cysteine (Sigma-Aldrich, cat. A9165), 10 mM nicotinamide (Sigma-Aldrich, cat. N0636), 1X B-27 supplement (Thermo Fisher Scientific, cat. 17504044), 1X N-2 supplement (Thermo Fisher Scientific, cat. 17502048), 10 microM Y-27632 dihydrochloride (Tocris Bioscience, cat. 1254), and 50 ng/mL human EGF recombinant protein (Thermo Fisher Scientific, cat. PHG0311). The 485176-168-R4-J1-PDC line was cultured in Panc media, which includes all 6C/Colon 1B media components plus 100 ng/mL human FGF-10 (Thermo Fisher Scientific, cat. 100-26), 500 nM SB-431542 (Selleckchem, cat. S1067), and gastrin (Tocris, cat. 3006).
[…]
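Note: spheroids exposed to the agents for one week before reading.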
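Throughout, for viability, T/C: percent of vehicle DMSO control viability so 100% = untreated growth.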

SMILES: C#Cc1c(F)ccc2cc(O)cc(-c3ncc4c(N5CC6CCC(C5)N6)nc(OCC56CCCN5CC(F)C6)nc4c3F)c12 (centres undefined)
- viability, T/C (compound 0.0316 µM): 103% and 107% and 96.2%
- viability, T/C (compound 0.1 µM): 98.9% and 118% and 97.6%
- viability, T/C (compound 0.316 µM): 106% (2×) and 98.1%
- viability, T/C (compound 1 µM): 100% and 101% and 92.4%
- viability, T/C (compound 3.16 µM): 96.8% and 99.4% and 96.6%
- viability, T/C (compound 10 µM): 84.1% and 105% and 83.3%
- IC50 (curve of compound): > 10000 nM

SMILES: C=CC(=O)N1CCN(c2nc(=O)n(-c3c(C)ccnc3C(C)C)c3nc(-c4c(O)cccc4F)c(F)cc23)C(C)C1 (centres undefined)
- viability, T/C (compound 0.0316 µM): 89% and 91.5% and 95%
- viability, T/C (compound 0.1 µM): 106% and 107% and 112%
- viability, T/C (compound 0.316 µM): 102% and 127% and 100%
- viability, T/C (compound 1 µM): 155% and 112% (2×)
- viability, T/C (compound 3.16 µM): 145% and 124% and 111%
- viability, T/C (compound 10 µM): 113% and 108% and 106%
- IC50 (curve of compound): > 10000 nM

SMILES: C=CCn1c(=O)c2cnc(Nc3ccc(N4CCN(C)CC4)cc3)nc2n1-c1cccc(C(C)(C)O)n1
- viability, T/C (compound 0.0316 µM): 105% and 84.5% and 97.9%
- viability, T/C (compound 0.1 µM): 81.6% and 94.9% and 101%
- viability, T/C (compound 0.316 µM): 83% and 52.6% and 63%
- viability, T/C (compound 1 µM): 46.9% and 51.9% and 42%
- viability, T/C (compound 3.16 µM): 50.9% and 46.4% and 62.5%
- viability, T/C (compound 10 µM): 45.4% and 49.7% and 66.2%

SMILES: CC(=O)O[C@H]1C(=O)[C@@]2(C)[C@H]([C@H](OC(=O)c3ccccc3)[C@]3(O)C[C@H](OC(=O)[C@H](O)[C@@H](NC(=O)c4ccccc4)c4ccccc4)C(C)=C1C3(C)C)[C@]1(OC(C)=O)CO[C@@H]1C[C@@H]2O
- viability, T/C (compound 0.0316 µM): 57.9% and 47.5% and 53%
- viability, T/C (compound 0.1 µM): 41.1% and 46.1% and 48.6%
- viability, T/C (compound 0.316 µM): 52.3% and 37.7% and 45%
- viability, T/C (compound 1 µM): 42.3% and 36.8% and 38.9%
- viability, T/C (compound 3.16 µM): 47.5% (2×) and 40.5%
- viability, T/C (compound 10 µM): 49.1% and 43% and 39.1%
- IC50 (curve of compound): 80.4 nM and < 31.6 nM and 50.4 nM

SMILES: CC(C)(O)C1CCC(Nc2ccc3ncc(-c4cccc(C(F)(F)F)c4)n3n2)CC1 (centres undefined)
- viability, T/C (compound 0.0316 µM): 112% and 97.2% and 85.6%
- viability, T/C (compound 0.1 µM): 104% and 82.3% and 99.3%
- viability, T/C (compound 0.316 µM): 99.6% and 94.8% and 96.7%
- viability, T/C (compound 1 µM): 94% and 78.5% and 75.3%
- viability, T/C (compound 3.16 µM): 28% and 26.1% and 20.6%
- viability, T/C (compound 10 µM): 31.7% and 25.3% and 24.3%
- IC50 (curve of compound): 2200 nM and 1870 nM and 1730 nM

SMILES: CC(C)n1c(=O)n(C)c2cnc3cc(F)c(-c4ccc(OCCCN5CCCCC5)nc4)cc3c21
- viability, T/C (compound 0.0316 µM): 109% and 90.8% and 106%
- viability, T/C (compound 0.1 µM): 91.9% and 85.2% and 84.2%
- viability, T/C (compound 0.316 µM): 101% and 92.4% and 109%
- viability, T/C (compound 1 µM): 115% and 111% and 96.7%
- viability, T/C (compound 3.16 µM): 94.2% and 74.5% and 67.8%
- viability, T/C (compound 10 µM): 60.8% and 56.7% and 68.5%
- IC50 (curve of compound): > 10000 nM

SMILES: CC1COCCN1c1cc(-c2ccnn2C)c2ccnc(-c3ccn[nH]3)c2n1 (centres undefined)
- viability, T/C (compound 0.0316 µM): 76% and 72.5% and 81.6%
- viability, T/C (compound 0.1 µM): 52.9% and 44.2% and 42.1%
- viability, T/C (compound 0.316 µM): 37.5% and 47.8% and 36.9%
- viability, T/C (compound 1 µM): 43.9% and 35.5% and 42.2%
- viability, T/C (compound 3.16 µM): 50% and 39.5% and 40.7%
- viability, T/C (compound 10 µM): 39.6% and 33.4% and 38.9%
- IC50 (curve of compound): 140 nM and 91.6 nM and 79 nM

SMILES: CC1COCCN1c1cc(C2(O)CC3CCC(C2)O3)c2cnn(-c3ccn[nH]3)c2n1 (centres undefined)
- viability, T/C (compound 0.0316 µM): 68.6% and 72.1% and 69.9%
- viability, T/C (compound 0.1 µM): 40% and 42.8% and 48.9%
- viability, T/C (compound 0.316 µM): 41.1% and 40% and 42.5%
- viability, T/C (compound 1 µM): 33% and 40.1% and 34.1%
- viability, T/C (compound 3.16 µM): 22.5% and 33.5% and 32.9%
- viability, T/C (compound 10 µM): 11.1% and 15% and 15.1%
- IC50 (curve of compound): 101 nM and 134 nM and 154 nM

SMILES: CC1COCCN1c1cc(C2(S(C)(=N)=O)CC2)nc(-c2ccnc3[nH]ccc23)n1 (centres undefined)
- viability, T/C (compound 0.0316 µM): 91.8% and 116% and 77.8%
- viability, T/C (compound 0.1 µM): 83.7% and 108% and 99.1%
- viability, T/C (compound 0.316 µM): 88.9% and 94.8% and 83.4%
- viability, T/C (compound 1 µM): 77.9% and 77.5% and 88.2%
- viability, T/C (compound 3.16 µM): 60.3% and 46.7% and 97.7%
- viability, T/C (compound 10 µM): 39.3% and 49.6% and 47.7%
- IC50 (curve of compound): 5530 nM and 5370 nM and 9390 nM

SMILES: CCCS(=O)(=O)Nc1ccc(F)c(C(=O)c2c[nH]c3ncc(-c4ccc(Cl)cc4)cc23)c1F
- viability, T/C (compound 0.0316 µM): 122% and 103% and 107%
- viability, T/C (compound 0.1 µM): 93.3% and 86.4% and 114%
- viability, T/C (compound 0.316 µM): 104% and 110% and 102%
- viability, T/C (compound 1 µM): 106% and 110% and 130%
- viability, T/C (compound 3.16 µM): 100% and 90.5% and 112%
- viability, T/C (compound 10 µM): 44.2% and 26.5% and 30.6%
- IC50 (curve of compound): 8880 nM and 6560 nM and 7610 nM

SMILES: CC[C@@]1(O)C(=O)OCc2c1cc1n(c2=O)Cc2cc3c(CN(C)C)c(O)ccc3nc2-1
- viability, T/C (compound 0.000999 µM): 116% and 95.5% and 102%
- viability, T/C (compound 0.00316 µM): 96.2% and 89.7% and 95.8%
- viability, T/C (compound 0.00999 µM): 128% and 70.9% and 96.4%
- viability, T/C (compound 0.0316 µM): 94.6% and 72% and 86.3%
- viability, T/C (compound 0.0999 µM): 68.6% and 55% and 64.9%
- viability, T/C (compound 0.316 µM): 68.7% and 50.2% and 51.1%
- IC50 (curve of compound): > 316 nM and 305 nM

SMILES: CCc1c2c(nc3ccc(O)cc13)-c1cc3c(c(=O)n1C2)COC(=O)[C@]3(O)CC
- viability, T/C (compound 0.000999 µM): 72.2% and 58.7% and 67.3%
- viability, T/C (compound 0.00316 µM): 58.9% and 53.5% and 66.5%
- viability, T/C (compound 0.00999 µM): 59.5% and 47.4% and 56.2%
- viability, T/C (compound 0.0316 µM): 43.9% and 44.5% and 44.3%
- viability, T/C (compound 0.0999 µM): 28.2% and 31% and 38.2%
- viability, T/C (compound 0.316 µM): 19.5% and 18.4% and 18.3%
- IC50 (curve of compound): 17.3 nM and 8.3 nM and 23.2 nM

SMILES: CN(C)c1ccc(Nc2c3ccc(NC(=O)CCN4CCCC4)cc3nc3cc(NC(=O)CCN4CCCC4)ccc23)cc1
- viability, T/C (compound 0.0316 µM): 102% [middle of 12 runs]
- viability, T/C (compound 0.1 µM): 106% [middle of 12 runs]
- viability, T/C (compound 1 µM): 101% [middle of 12 runs]
- viability, T/C (compound 3.16 µM): 99.7% [middle of 12 runs]
- viability, T/C (compound 10 µM): 90% [middle of 12 runs]
- IC50 (compound alone, run of 03/26/2024): > 10000 nM
